This note sets out measurements from PMC5719431, “Structural insights into the potency of SK channel positive modulators” (Scientific Reports, 2017).

For test [1], the target named is T1, SK2-a channel (SK2, KCa2.2) co-expressed with CaM (Rattus norvegicus, UniProt P0DP29+P70604).
T1 construct: gene Kcnn2; full-length SK2-a co-transfected with CaM and GFP in TsA201 cells; tetrameric channel
The experiment in a line: inside-out patch clamp, potentiation of SK2 current. The class given is cell-based. In general terms: In patch-clamp work, channel activity is measured electrically.

The target in test [2] is T2, CaM/CaMBD complex (CaM and SK2 channel fragment R395–Q486) (Rattus norvegicus, UniProt P0DP29+P70604).
T2 construct: gene Kcnn2; both expressed in E. coli Rosetta-2
T2 sequence (P70604 396-487, one chain of several): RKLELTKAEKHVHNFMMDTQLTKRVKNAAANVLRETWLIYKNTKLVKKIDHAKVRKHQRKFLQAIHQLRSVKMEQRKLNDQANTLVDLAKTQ
The experiment in a line: X-ray crystal structure (soaked crystals). As to conditions: Ca2+-CaM, site at interface of CaMBD and CaM N-lobe. The class given is binding.

T1 sequence (P70604 whole entry, one chain of several): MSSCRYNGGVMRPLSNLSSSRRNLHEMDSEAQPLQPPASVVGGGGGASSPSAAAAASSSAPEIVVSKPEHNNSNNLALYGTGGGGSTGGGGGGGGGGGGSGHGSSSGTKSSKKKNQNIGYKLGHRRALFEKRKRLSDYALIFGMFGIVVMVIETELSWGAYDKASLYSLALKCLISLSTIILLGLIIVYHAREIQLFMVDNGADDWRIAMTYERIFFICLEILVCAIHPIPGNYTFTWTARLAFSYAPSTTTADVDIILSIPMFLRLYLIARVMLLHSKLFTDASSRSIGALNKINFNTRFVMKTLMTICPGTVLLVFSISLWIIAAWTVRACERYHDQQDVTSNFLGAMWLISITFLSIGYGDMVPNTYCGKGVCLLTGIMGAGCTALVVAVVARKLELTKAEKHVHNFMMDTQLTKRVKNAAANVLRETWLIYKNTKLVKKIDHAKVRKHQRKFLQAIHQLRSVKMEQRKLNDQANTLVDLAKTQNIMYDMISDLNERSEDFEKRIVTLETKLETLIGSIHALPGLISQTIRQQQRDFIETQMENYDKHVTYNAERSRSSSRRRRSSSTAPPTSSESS

A word on the EC50: it is the midpoint of the concentration-response curve. Consider `O=C1Nc2c(ccc(Cl)c2Cl)C1=NO` [NS309], for which the EC50 in test [1] was 0.552 ± 0.083 µM.

In the case of `Cc1cc2c(cc1Br)NC(=O)C2=NO` [SKS-11, 6-bromo-5-methyl-1H-indole-2,3-dione-3-oxime], the “X-ray crystal structure (soaked crystals)” value in test [2] (soaked about 1 month) is “crystal structures of SKS-11 and SKS-14 in complex with their binding pocket”. Besides, the EC50 in test [1] amounted to 3.87 ± 0.88 µM.

For the compound `O=C1Nc2c(F)cccc2C1=NO` [SKS-14, 7-fluoro-3-(hydroxyimino)indolin-2-one], the “X-ray crystal structure (soaked crystals)” value in test [2] (soaked about 5 months) was “crystal structures of SKS-11 and SKS-14 in complex with their binding pocket”. The EC50 in test [1] was determined as 33.2 ± 4.8 µM.
